Test results from US20250002450A1, “CATIONIC STEROID COMPOUNDS, METHOD OF OBTAINING THEREOF, FORMULATIONS COMPRISING THEREOF AND THEIR USES” (UNIVERSIDADE DO PORTO, priority 2021, published 2025).
In brackets after ≈: the same amount, converted by molar mass.

Columns and labels:
Assay in all cases: Antibacterial MIC/MBC (broth microdilution)
[1] = tested on: E. coli 2252 (COL-resistant); type: cell-based, Escherichia coli
Excerpt: (§1) Twelve reference bacterial strains and nine MDR clinically relevant bacterial strains were used in this study. Gram-negative bacteria comprised reference strains E. coli ATCC 25922, K. pneumoniae ATCC 13883, Salmonella enterica serovar Typhimurium CECT 443, P. aeruginosa ATCC 27853, A. baumannii ATCC 19606, C. jejuni ATCC 33560 (ATCC—American Type Culture Collection; CECT—Colección Espanola de Cultivos Tipo); clinical isolates E. coli SA/2, an extended-spectrum β-lactamase (ESBL)-producing strain and P. aeruginosa 33b, a pan-drug-resistant isolate; and animal isolates C. jejuni P5/4, a ciprofloxacin-resistant strain, C. jejuni 4432, C. jejuni 4433, C. jejuni 4448, and E. coli 2252, a COL-resistant strain [42]. Gram-positive strains included S. aureus ATCC 29213, E. faecalis ATCC 29212, S. pyogenes ATCC 19615, and environmental isolates methicillin-resistant S. aureus (MRSA) 66/1 [43], and VAN-resistant enterococci (VRE) E. faecalis B3/101 [44]. Gram-negative fish pathogens Yersinia ruckeri ATCC 29473, Listonella anguillarum ATCC 1924, and Tenacibaculum maritimum ATCC 43397 were also included.
(§2) Strains were kept in Trypto-Casein Soy agar (TSA—Biokar Diagnostics, Allone, Beauvais, France) slants and, before each assay, were sub-cultured in Mueller-Hinton agar (MHA—Biokar Diagnostics, Allone, Beauvais, France). Y. ruckeri ATCC 29473 and L. anguillarum ATCC 1924 were kept in Nutrient Agar (Condalab, Madrid, Spain) and T. maritimum ATCC 43397 was kept in TMM agar (Condalab, Madrid, Spain), and were sub-cultured in the respective culture media before each assay. For S. pyogenes ATCC 19615, CAMHB was supplemented with 3.75% lysed horse blood (LBH—Oxoid, Basingstoke, England), whereas for C. jejuni it was supplemented with 2.5% LHB. Colony-forming unit counts of the inoculum were conducted to determine the initial inoculum size (which should be approximately 5×10^5 CFU/mL). Sterility and growth controls were included in each assay. The 96-well U-shaped untreated polystyrene microtiter plates were incubated for 20 h at 37 degrees C. (42 degrees C. for C. jejuni, in a microaerophilic atmosphere) and the minimal inhibitory concentration (MIC) was determined as the lowest concentration of compound that prevented visible growth. The minimal bactericidal concentration (MBC) was determined by spreading 100 μL of the content of the wells with no visible growth on MH plates. The MBC was determined as the lowest concentration of compound that killed 99.9% of the initial inoculum after overnight incubation at 37 degrees C. Two independent assays were performed for reference and MDR strains.
(§3) An initial screening of the antibacterial activity of the compounds was performed by the Kirby-Bauer disk diffusion method, as recommended by the Clinical and Laboratory Standards Institute (CLSI). Briefly, sterile 6 mm blank paper disks (Oxoid, Basingstoke, England) impregnated with 15 μg of each compound were placed on inoculated MH agar plates. A blank disk with dimethylsulfoxide (DMSO) was used as a negative control. MH inoculated plates were incubated for 18-20 h at 37 degrees C. At the end of incubation, the inhibition halos where measured. The MIC was used to determine the antibacterial activity of each compound, in accordance with the recommendations of the CLSI. Two-fold serial dilutions of the compounds were prepared in Mueller-Hinton Broth 2 (MHB2—Sigma-Aldrich, St. Louis, MO, USA) within the concentration range of 0.062-64 μg/mL. CTX ranging between 0.031-16 μg/mL was used as a control. Sterility and growth controls were included in each assay. Purity checks and colony counts of the inoculum suspensions were also performed in order to ensure that the final inoculum density closely approximates the intended number (5×10^5 CFU/mL). The MIC was determined as the lowest concentration of compound that inhibited growth of the bacteria. The MBC was assessed by spreading 10 μL of culture collected from wells showing no visible growth on MH agar plates. […]

E. coli SA/2 (ESBL) = type: cell-based, Escherichia coli
Excerpt: as §1, §2, §3

P. aeruginosa 33b (PDR) = type: cell-based, Pseudomonas aeruginosa
Excerpt: as §1, §2, §3

[2] = tested on: Acinetobacter baumannii ATCC 19606; type: cell-based
Excerpt: as §1, §2, §3

[3] = tested on: Campylobacter jejuni ATCC 33560; type: cell-based
Excerpt: as §1, §2, §3

[4] = tested on: Escherichia coli ATCC 25922; type: cell-based
Excerpt: as §1, §2, §3

[5] = tested on: Klebsiella pneumoniae ATCC 13883; type: cell-based
Excerpt: as §1, §2, §3

[6] = tested on: Listonella anguilarum ATCC 1924; type: cell-based
Excerpt: as §1, §2, §3

[7] = tested on: Pseudomonas aeruginosa ATCC 27853; type: cell-based
Excerpt: as §1, §2, §3

[8] = tested on: Salmonella enterica serovar Typhimurium CECT 443; type: cell-based
Excerpt: as §1, §2, §3

[9] = tested on: Staphylococcus aureus ATCC 29213; type: cell-based
Excerpt: as §1, §2, §3

[10] = tested on: Yersinia ruckeri ATCC 29473; type: cell-based
Excerpt: as §1, §2, §3

S. aureus 66/1 (MRSA) = type: cell-based, Staphylococcus aureus
Excerpt: as §1, §2, §3

E. faecalis B3/101 (VRE) = type: cell-based, Enterococcus faecalis
Excerpt: as §1, §2, §3

[11] = tested on: Enterococcuss faecalis ATCC 29212; type: cell-based, Enterococcus faecalis
Excerpt: as §1, §2, §3

[12] = Acinetobacter baumannii ATCC 19606
[13] = Campylobacter jejuni ATCC 33560
[14] = Klebsiella pneumoniae ATCC 13883
[15] = Listonella anguilarum ATCC 1924
[16] = Pseudomonas aeruginosa ATCC 27853
[17] = Enterococcuss faecalis ATCC 29212

C[C@H](CCC(=O)NCCN)[C@H]1CC[C@H]2[C@@H]3CC[C@@H]4C[C@H](O)CC[C@]4(C)[C@H]3C[C@H](O)[C@]12C [Compound 1, (R)—N-(2-aminoethyl)-4-((3R,5R,8R,9S,10S,12S,13R,14S,17R)-3,12-dihydroxy-10,13-dimethylhexadecahydro-1H-cyclopenta[a]phenanthren-17-yl) pentanamida]
antibacterial activity (in words) ([1]; E. coli 2252): active
MIC ([1]; E. coli 2252 (COL-resistant)): 64 µg/mL (≈ 147 µM)
antibacterial activity (in words) (E. coli SA/2 (ESBL); E. coli SA/2): active
MBC (E. coli SA/2 (ESBL); E. coli SA/2 (ESBL)): 32 µg/mL (≈ 73.6 µM)
MIC (E. coli SA/2 (ESBL); E. coli SA/2 (ESBL)): 32 µg/mL (≈ 73.6 µM)
antibacterial activity (in words) (P. aeruginosa 33b (PDR); P. aeruginosa 33b): active
MBC (P. aeruginosa 33b (PDR); P. aeruginosa 33b (PDR)): >64 µg/mL
MIC (P. aeruginosa 33b (PDR); P. aeruginosa 33b (PDR)): 64 µg/mL (≈ 147 µM)
antibacterial activity (in words) ([2]; A. baumannii ATCC 19606): displayed an inhibitory effect
MBC [2, 12]: 64 µg/mL (≈ 147 µM)
MIC [2, 12]: 64 µg/mL (≈ 147 µM)
antibacterial activity (in words) ([3]; C. jejuni ATCC 33560): showed antimicrobial activity
MBC [3, 13]: 64 µg/mL (≈ 147 µM)
MIC [3, 13]: 64 µg/mL (≈ 147 µM)
antibacterial activity (in words) ([4]; E. coli ATCC 25922): active
MBC ([4]; Escherichia coli ATCC 25922): 64 µg/mL (≈ 147 µM)
MIC ([4]; Escherichia coli ATCC 25922): 32 µg/mL (≈ 73.6 µM)
antibacterial activity (in words) ([5]; K. pneumoniae ATCC 13883): active
MBC [5, 14]: 64 µg/mL (≈ 147 µM)
MIC [5, 14]: 64 µg/mL (≈ 147 µM)
antibacterial activity (in words) ([6]; Listonella anguilarum): active
MBC [6, 15]: 32 µg/mL (≈ 73.6 µM)
MIC [6, 15]: 16 µg/mL (≈ 36.8 µM)
antibacterial activity (in words) ([7]; P. aeruginosa ATCC 27853): active
MBC [7, 16]: 64 µg/mL (≈ 147 µM)
MIC [7, 16]: 64 µg/mL (≈ 147 µM)
MBC [8]: 16 µg/mL (≈ 36.8 µM)
MIC [8]: 16 µg/mL (≈ 36.8 µM)
antibacterial activity (in words) [8]: exhibited antimicrobial activity
MBC [9]: 16 µg/mL (≈ 36.8 µM)
MIC [9]: 16 µg/mL (≈ 36.8 µM)
MBC [10]: 32 µg/mL (≈ 73.6 µM)
MIC [10]: 16 µg/mL (≈ 36.8 µM)
antibacterial activity (in words) [10]: displayed antibacterial activity
MBC (S. aureus 66/1 (MRSA)): 32 µg/mL (≈ 73.6 µM)
MIC (S. aureus 66/1 (MRSA)): 32 µg/mL (≈ 73.6 µM)
antibacterial activity (in words) (E. faecalis B3/101 (VRE); E. faecalis B3/101): displayed the same effect
MBC (E. faecalis B3/101 (VRE); E. faecalis B3/101 (VRE)): 32 µg/mL (≈ 73.6 µM)
MIC (E. faecalis B3/101 (VRE); E. faecalis B3/101 (VRE)): 32 µg/mL (≈ 73.6 µM)
antibacterial activity (in words) ([11]; E. faecalis ATCC 29212): exhibited antimicrobial activity
MBC [11, 17]: 32 µg/mL (≈ 73.6 µM)
MIC [11, 17]: 16 µg/mL (≈ 36.8 µM)
